From US9676763B2 (priority 2010, dated 2017)

These compounds were tested on VSV luc particles bearing the native VSV G glycoprotein.
Format: cell-based, vesicular stomatitis virus

SMILES	specificity for EboV GP versus VSV G particles
CCOc1ccc(S(=O)(=O)N(C)c2ccc(OCC(=O)N(C)C3CCN(C)CC3)cc2)cc1 [compound 6]	EboV specific
Oc1ccc(/C=N/n2c(-c3ccco3)cs/c2=N\c2ccc(F)cc2F)c(O)c1 [compound 7]	EboV specific
COC(=O)c1ccc(-c2ccco2)n1Cc1cccc(F)c1 [compound 8]	EboV specific

Each compound was assayed on EboV.

SMILES	anti-EboV activity
CCCCc1oc2ccccc2c1C(=O)c1cc(I)c(OCCN(CC)CC)c(I)c1 [amiodarone]	weak anti-EboV activity
CCOC(=O)C1=C(COCCN)NC(C)=C(C(=O)OC)C1c1ccccc1Cl (stereo not drawn) [amlodipne]	weak anti-EboV activity
COc1ccc([C@@H]2Sc3ccccc3N(CCN(C)C)C(=O)[C@@H]2OC(C)=O)cc1 [diltiazen]	weak anti-EboV activity
